This is an account of results in patent publication US20070082883A1, “HIV protease inhibitors” (THE BOARD OF TRUSTEES OF THE UNIVERSITY OF ILLINOIS, priority 2002, published 2007).

This experiment concerns the target T1, HIV-1 protease (Human immunodeficiency virus type 1 group M subtype B, UniProt P04585).
T1 construct: made in house; host or cells: E. coli BL21 (dE3)pLysS, pET30a vector
Briefly: HIV-1 Protease Inhibition Assay. Format: biochemical. As to conditions: fluorogenic substrate assay. The text has this: Assays of the dose-response effect of inhibitor compounds can be described as a curve expressing a degree of inhibition as a function of concentration. The curve theoretically passes through a point at which the concentration is sufficient to reduce activity of the HIV protease enzyme to a level that is 50% that of the difference between minimal and maximal enzyme activity in the assay.
HIV-1 Protease Inhibition Assay
The HIV-1 protease gene was subcloned into the pET30a vector (Novagen) and then transformed into BL21 (dE3)pLysS cells for protein expression. Protein expression and purification were followed according to Tang's procedure (Hong et al., Biochemistry, 1996, 35, 10627-10633). […] The inclusion body containing some bacterial proteins was thoroughly washed by using TRITON X-100, solubilized in […] and passed through the Q-sepharose column to remove the bacterial proteins which interfered with subsequent refolding steps. HIV-1 protease was refolded from the urea to an active form by dialysis. As a final step, gel filtration chromatography was used to remove impurities after refolding. Activities of purified HIV-1 protease were examined using a fluorogenic substrate, 2-aminobenzoyl-Thr-Ile-Nle-Phe(pNO2)-Gln-Arg-NH2 (Novabiochem). […] In the condition of So<<Km, v=Eo(kcat/Km)So, where Eo is the total enzyme concentration, and So is the substrate concentrate. […] Assays are carried out as described by Toth and Marshall (Toth et al., Int. J. Pept. Protein Res., 1990, 36, 544-50).

In turn, `CC(C)(C)NC(=O)[C@@H]1C[C@@H]2CCCC[C@@H]2CN1C[C@@H](O)[C@H](Cc1ccccc1)NC(=O)OC1CCCC12CCCO2` (single isomer, unassigned) [Compound 144] displayed an IC50 of 40 nM.
For `CC(C)(C)NC(=O)[C@@H]1C[C@@H]2CCCC[C@@H]2CN1C[C@@H](O)[C@H](Cc1ccccc1)NC(=O)OC1CCCC12CCCO2` (single isomer, unassigned) [Compound 145], the half-inhibitory concentration (IC50) came out at 96 nM.
Regarding `CC(C)CN(C[C@@H](O)[C@H](Cc1ccccc1)NC(=O)OC1CCCC12CCCO2)S(=O)(=O)c1cccc(O)c1` (stereo partly drawn) [Compound 75], the IC50 came out at 6.7 nM and the Ki amounted to 2.1 nM.
On the same counts, the results for `CC(C)CN(C[C@@H](O)[C@H](Cc1ccccc1)NC(=O)OC1CC2CCO[C@@H]2C1)S(=O)(=O)c1cccc(O)c1` (stereo partly drawn) [Compound 79] are 5.5 nM and 1.7 nM.
In the case of `CC(C)CN(C[C@@H](O)[C@H](Cc1ccccc1)NC(=O)OC1CC2CCO[C@@H]2C1)S(=O)(=O)c1ccc(OC2CCCCO2)c(OC2CCCCO2)c1` (stereo partly drawn) [Compound 87], the IC50 turned out to be 30 nM and the Ki worked out at 9.3 nM.
For `CC(C)CN(C[C@@H](O)[C@H](Cc1ccccc1)NC(=O)OC1CC2CCO[C@@H]2C1)S(=O)(=O)c1cc(OC2CCCCO2)cc(OC2CCCCO2)c1` (stereo partly drawn) [Compound 99], the IC50 came to 3.9 nM and the inhibitory constant (Ki) is 1.2 nM.
For `CC(C)CN(C[C@@H](O)[C@H](Cc1ccccc1)NC(=O)OC1CC2CCO[C@@H]2C1)S(=O)(=O)c1cc(O)cc(O)c1` (stereo partly drawn) [Compound 100], the IC50 came out at 247 nM and affinity was put at a Ki of 77 nM.
On to `CC(C)CN(C[C@@H](O)[C@H](Cc1ccccc1)NC(=O)OC1CC2CCO[C@@H]2C1)S(=O)(=O)c1cccc(CO)c1` (stereo partly drawn) [Compound 113], for which the IC50 stood at 4 nM.
Still for that read-out and setting: the result for `CC(C)CN(C[C@@H](O)[C@H](Cc1ccccc1)NC(=O)OC1CO[C@H]2OCCC12)S(=O)(=O)c1cccc(CO)c1` (stereo partly drawn) [Compound 114] reads 1.1 nM.
On to `Cc1ccc(S(=O)(=O)OCc2ccc(S(=O)(=O)N(CC(C)C)C[C@@H](O)[C@H](Cc3ccccc3)NC(=O)OC3CO[C@H]4OCCC34)cc2)cc1` (stereo partly drawn) [Compound 117], for which inhibition was half-maximal at 2.4 nM (IC50) and the Ki worked out at 0.74 nM.
`CC(C)CN(C[C@@H](O)[C@H](Cc1ccccc1)NC(=O)OC1CO[C@H]2OCCC12)S(=O)(=O)c1ccc(CN)cc1` (stereo partly drawn) [Compound 118] displayed an IC50 of 2.7 nM and a Ki of 0.9 nM.
Consider `CC(C)CN(C[C@@H](O)[C@H](Cc1ccccc1)NC(=O)OC1CO[C@H]2OCCC12)S(=O)(=O)c1cccc(/C=N/O)c1` (stereo partly drawn) [Compound 120], for which half-maximal inhibition (IC50) was put at 2.4 nM and the affinity, expressed as Ki, was 0.74 nM.
As to `CC(C)CN(C[C@@H](O)[C@H](Cc1ccccc1)NC(=O)OC1CO[C@H]2OCCC12)S(=O)(=O)c1ccc(/C=C/CO)cc1` (stereo partly drawn) [Compound 121], inhibition was half-maximal at 3 nM (IC50).
As for `CC(C)CN(C[C@@H](O)[C@H](Cc1ccccc1)NC(=O)OC1CC2CCO[C@@H]2C1)S(=O)(=O)c1ccc(CN)cc1` (stereo partly drawn) [Compound 125], inhibition was half-maximal at 3.5 nM (IC50) and the affinity corresponds to a Ki of 1.1 nM.
As for `CNCc1ccc(S(=O)(=O)N(CC(C)C)C[C@@H](O)[C@H](Cc2ccccc2)NC(=O)OC2CC3CCO[C@@H]3C2)cc1` (stereo partly drawn) [Compound 126], the IC50 was determined as 15 nM.
Consider `CC(C)CN(C[C@@H](O)[C@H](Cc1ccccc1)NC(=O)OC1CC2CCO[C@@H]2C1)S(=O)(=O)c1ccc(CN(C)C)cc1` (stereo partly drawn) [Compound 127], for which it took 50 nM to reach half-maximal inhibition (IC50).
`CC(C)CN(C[C@@H](O)[C@H](Cc1ccccc1)NC(=O)OC1CC2CCO[C@@H]2C1)S(=O)(=O)c1ccc(C=NO)cc1` (stereo partly drawn) [Compound 128] had an IC50 of 1.7 nM and a Ki of 0.53 nM.
For `CC(C)CN(C[C@@H](O)[C@H](Cc1ccccc1)NC(=O)OC1CC2CCO[C@@H]2C1)S(=O)(=O)c1cccc(C=NO)c1` (stereo partly drawn) [Compound 129] the same measures were 2.9 nM and 0.9 nM.
Take `COCc1ccc(S(=O)(=O)N(CC(C)C)C[C@@H](O)[C@H](Cc2ccccc2)NC(=O)OC2CC3CCO[C@@H]3C2)cc1` (stereo partly drawn) [Compound 130]: it took 0.8 nM to reach half-maximal inhibition (IC50).
Take `Cc1ccc(S(=O)(=O)N(CC(C)C)C[C@@H](O)[C@H](Cc2ccccc2)NC(=O)OC2CC3CCO[C@@H]3C2)cc1` (stereo partly drawn) [Compound 131]: the midpoint of inhibition, the IC50, lay at 1.4 nM.
For the molecule `CC(C)CN(C[C@@H](O)[C@H](Cc1ccccc1)NC(=O)OC1CC2CCO[C@@H]2C1)S(=O)(=O)c1cccc2cccnc12` (stereo partly drawn) [Compound 132], it took 12 nM to reach half-maximal inhibition (IC50) and the Ki came out at 3.7 nM.
`CC(C)CN(C[C@@H](O)[C@H](Cc1ccccc1)NC(=O)OC1CC2CCO[C@@H]2C1)S(=O)(=O)Cc1ccccc1` (stereo partly drawn) [Compound 133] returned an IC50 of 48 nM and a Ki of 15 nM.
The molecule `CC(C)CN(C[C@@H](O)[C@H](Cc1ccccc1)NC(=O)OC1CC2CCO[C@@H]2C1)C(=O)c1cc(O)cc(O)c1` (stereo partly drawn) [Compound 134] yielded an IC50 of 3000 nM and an inhibition constant Ki of 931 nM.
As for `CC(C)CN(C[C@@H](O)[C@H](Cc1ccccc1)NC(=O)OC(C)(C)C)S(=O)(=O)c1ccc(CN2CCN(C)CC2)cc1` [Compound 137], it took 2100 nM to reach half-maximal inhibition (IC50).
The same measure, in the same setting: the result for `CC(C)CN(C[C@@H](O)[C@H](Cc1ccccc1)NC(=O)O[C@H]1CCOC1)S(=O)(=O)c1ccc(CN2CCN(C)CC2)cc1` [Compound 138] reads 270 nM; that for `CC(C)CN(C[C@@H](O)[C@H](Cc1ccccc1)NC(=O)O[C@H]1CCOC1)S(=O)(=O)c1ccc(CN2CCOCC2)cc1` [Compound 139], 968 nM.
In the case of `CC(C)(C)NC(=O)[C@@H]1C[C@@H]2CCCC[C@@H]2CN1C[C@@H](O)[C@H](Cc1ccccc1)NC(=O)OC1CC2CCO[C@@H]2C1` (stereo partly drawn) [Compound 143], the IC50 was 3 nM.
In turn, `CC(C)(C)NC(=O)[C@@H]1C[C@@H]2CCCC[C@@H]2CN1C[C@@H](O)[C@H](Cc1ccccc1)NC(=O)O[C@H]1CCC2(CCCO2)C1` (stereo partly drawn) [Compound 145a] showed an IC50 of 500 nM.
As for `CC(C)(C)NC(=O)[C@@H]1C[C@@H]2CCCC[C@@H]2CN1C[C@@H](O)[C@H](Cc1ccccc1)NC(=O)OC1CC[C@@]2(CCCO2)C1` (stereo partly drawn) [Compound 145b], the 50% inhibitory concentration (IC50) was more than 2000 nM.
Consider `COc1ccc(S(=O)(=O)N(CC(C)C)C[C@@H](O)[C@H](Cc2ccccc2)NC(=O)OC2CC[C@@]3(CCCO3)C2)cc1` (stereo partly drawn) [Compound 145c], for which the IC50 amounted to 15 nM.
`COc1ccc(S(=O)(=O)N(CC(C)C)C[C@@H](O)[C@H](Cc2ccccc2)NC(=O)O[C@H]2CC[C@]3(CCCO3)C2)cc1` [Compound 145d] showed a half-maximal inhibitory concentration (IC50) of 4.6 nM.
Molecule `Cc1ccc(S(=O)(=O)N(CC(C)C)C[C@@H](O)[C@H](CC2CCN(C(=O)c3ccccc3)CC2)NC(=O)OC2CO[C@H]3OCCC23)cc1` (stereo partly drawn) [Compound 146] came in with an IC50 of 1.8 nM.
`Cc1ccc(S(=O)(=O)N(CC(C)C)C[C@@H](O)[C@H](CC2CCN(C(=O)c3ccccc3)CC2)NC(=O)O[C@H]2CCOC2)cc1` [Compound 147] registered an IC50 of 60 nM.
Consider `Cc1ccc(S(=O)(=O)N(CC(C)C)C[C@@H](O)[C@H](CC2CCN(C(=O)c3ccccc3)CC2)NC(=O)OC2CCCC23CCCO3)cc1` (stereo partly drawn) [Compound 148], for which the IC50 stood at 185 nM.
In turn, `Cc1ccc(S(=O)(=O)N(CC(C)C)C[C@@H](O)[C@H](CC2CCN(Cc3ccccc3)CC2)NC(=O)OC2CO[C@H]3OCCC23)cc1` (stereo partly drawn) [Compound 149] came in with a half-maximal inhibitory concentration (IC50) of 20 nM.
Regarding `Cc1ccc(S(=O)(=O)N(CC(C)C)C[C@@H](O)[C@H](CC2CCN(Cc3ccccc3)CC2)NC(=O)O[C@H]2CCOC2)cc1` [Compound 150], half-maximal inhibition (IC50) was put at 540 nM.
Regarding `CC(C)CN(C[C@@H](O)[C@H](Cc1ccccc1)NC(=O)OC1CO[C@H]2OCCC12)S(=O)(=O)c1ccc(Cl)c(O)c1` (stereo partly drawn) [Compound 151], the IC50 stood at 3.1 nM and the Ki was found to be 1 nM.
Turning to `CC(C)CN(C[C@@H](O)[C@H](Cc1ccccc1)NC(=O)OC1CC2CCO[C@@H]2C1)S(=O)(=O)c1ccc(Cl)c(O)c1` (stereo partly drawn) [Compound 152], the midpoint of inhibition, the IC50, lay at 5.2 nM and the Ki is 1.8 nM.
Molecule `CC(C)CN(C[C@@H](O)[C@H](Cc1ccccc1)NC(=O)O[C@H]1CCOC1)S(=O)(=O)c1ccc(Cl)c(O)c1` [Compound 153] displayed an IC50 of 3.6 nM and a Ki of 1.1 nM.
For `O=C(N[C@@H](Cc1ccccc1)[C@H](O)CN(CCN1CCOCC1)S(=O)(=O)c1ccc(Cl)c(O)c1)OC1CO[C@H]2OCCC12` (stereo partly drawn) [Compound 154] the same measures were 25 nM and 7.8 nM.
`O=C(N[C@@H](Cc1ccccc1)[C@H](O)CN(CCN1CCOCC1)S(=O)(=O)c1ccc(Cl)c(O)c1)OC1CC2CCO[C@@H]2C1` (stereo partly drawn) [Compound 155]: the IC50 worked out at 16 nM and the Ki amounted to 4.9 nM.
Consider `Cc1ccc(S(=O)(=O)N(CC(C)C)C[C@@H](O)[C@H](Cc2ccccc2)NC(=O)OC2CO[C@H]3OCCC23)cc1CO` (stereo partly drawn) [Compound 156], for which the IC50 stood at 3.1 nM and the Ki was found to be 0.97 nM.
`Cc1ccc(S(=O)(=O)N(CC(C)C)C[C@@H](O)[C@H](Cc2ccccc2)NC(=O)OC2CC3CCO[C@@H]3C2)cc1CO` (stereo partly drawn) [Compound 157] gave an IC50 of 2.8 nM and a Ki of 0.87 nM.
The molecule `Cc1ccc(S(=O)(=O)N(CCN(C)C)C[C@@H](O)[C@H](Cc2ccccc2)NC(=O)OC2CO[C@H]3OCCC23)cc1CO` (stereo partly drawn) [Compound 158] returned an IC50 of 105 nM and a Ki of 32 nM.
